Read-outs that look alike come from different tables or passages of the source.
Tests used:
[1] = molecular target: SARS-CoV-2 3CL protease (Severe acute respiratory syndrome coronavirus 2, UniProt P0DTD1); assay: biochemical; conditions: 50% SARS-CoV-2 3CL protease inhibitory concentration, read-out: IC50
[2] = system: SARS-CoV-2; assay: microbe, parasite or virus in culture; type: cell-based; conditions: Severe acute respiratory syndrome coronavirus 2, VeroE6/TMPRSS2, 72 h, 50% SARS-CoV-2 infected cell death inhibitory concentration, VeroE6/TMPRSS2 cells, 3 days culture

Cc1cncc(-n2c(=O)nc(Nc3cc4cn(CCO)nc4cc3Cl)n(Cc3ccc(F)c(C#N)c3)c2=O)c1 [II-0140]
IC50 ([1]; given as class symbols): < 100 nM | EC50 ([2]; class symbols): 1000 to 10000 nM

Cn1cc2cc(Nc3nc(=O)n(-c4cncc5ccccc45)c(=O)n3Cc3cc(F)c(F)c(F)c3)ccc2n1 [Compound I-0380]
IC50 ([1]; given as class symbols): < 100 nM | EC50 ([2]; class symbols): < 1000 nM

Cc1cc2nn(C)cc2cc1Nc1nc(=O)n(-c2cncc3ccccc23)c(=O)n1Cc1ccc(F)c(C#N)c1 [Compound I-0431]
IC50 ([1]; given as class symbols): < 100 nM | EC50 ([2]; class symbols): < 1000 nM

COc1ccc(Nc2nc(=O)n(Cc3ccc[nH]c3=O)c(=O)n2Cc2ccc(F)c(C#N)c2)c(F)c1 [Compound I-0332]
IC50 ([1]; given as class symbols): < 100 nM | EC50 ([2]; class symbols): 1000 to 10000 nM

O=c1[nH]cccc1Cn1c(=O)nc(Nc2cc3cn(C4COC4)nc3cc2Cl)n(Cc2cc(F)c(F)c(F)c2)c1=O [Compound I-0382]
IC50 ([1]; given as class symbols): < 100 nM | EC50 ([2]; class symbols): 1000 to 10000 nM

Cc1cncc(-n2c(=O)nc(Nc3cc4cn(C)nc4cc3Cl)n(Cc3cc(C#N)ccc3C)c2=O)c1 [II-0596]
IC50 ([1]; RapidFire MS): 1.6 nM | EC50 ([2]; CellTiter-Glo 2.0): 62 nM

COC(=O)Nc1nc2cc(Cl)c(Nc3nc(=O)n(Cc4ncn(C)n4)c(=O)n3Cc3cc(F)c(F)cc3F)cc2s1 [II-0075]
IC50 ([1]; given as class symbols): < 100 nM | EC50 ([2]; class symbols): < 1000 nM

Cc1ccc(C#N)cc1Cn1c(Nc2cc3cn(C)nc3cc2Cl)nc(=O)n(-c2cncc(Cl)c2)c1=O [II-0543]
IC50 ([1]; RapidFire MS): 2.8 nM | EC50 ([2]; CellTiter-Glo 2.0): 87 nM

CC(C)(O)Cn1cc2cc(Nc3nc(=O)n(Cc4cc(Cl)c[nH]c4=O)c(=O)n3Cc3cc(F)c(F)c(F)c3)c(Cl)cc2n1 [Compound I-0455]
IC50 ([1]; given as class symbols): < 100 nM | EC50 ([2]; class symbols): 1000 to 10000 nM

CNc1nc2cc(Cl)c(Nc3nc(=O)n(-c4cncc(C)c4)c(=O)n3Cc3cc(C#N)c(F)cn3)cc2s1 [II-0534]
IC50 ([1]; given as class symbols): < 100 nM | EC50 ([2]; class symbols): 1000 to 10000 nM

Cn1cnc(Cn2c(=O)nc(Nc3cc4cn(C)nc4cc3Cl)n(Cc3cc(F)c(F)c(F)c3)c2=O)n1 [Compound I-0421]
IC50 ([1]; given as class symbols): < 100 nM | IC50 ([1]; RapidFire MS): 10 nM | EC50 ([2]; CellTiter-Glo 2.0): 450 nM | EC50 ([2]; class symbols): < 1000 nM

Cc1cncc(-n2c(=O)nc(Nc3cc4cn(C)nc4cc3Cl)n(Cc3cc(F)c(F)c(F)c3F)c2=O)c1 [II-0164]
IC50 ([1]; RapidFire MS): 9 nM | EC50 ([2]; CellTiter-Glo 2.0): 195 nM

CNc1nc2cc(Cl)c(Nc3nc(=O)n(Cc4ncn(C)n4)c(=O)n3Cc3cc(Cl)c(F)cc3F)cc2o1 [II-0104]
IC50 ([1]; given as class symbols): < 100 nM | EC50 ([2]; class symbols): 1000 to 10000 nM

Cc1cncc(-n2c(=O)nc(Nc3cc4cn(C)nc4cc3Cl)n(Cc3cc(C#N)c(F)cn3)c2=O)c1 [II-0535]
IC50 ([1]; given as class symbols): < 100 nM | EC50 ([2]; class symbols): < 1000 nM

Cc1nc2cc(Cl)c(Nc3nc(=O)n(Cc4ncn(C)n4)c(=O)n3Cc3cc(F)c(F)c(F)c3)cc2n1C [Compound I-0422]
IC50 ([1]; given as class symbols): < 100 nM | EC50 ([2]; class symbols): 1000 to 10000 nM

Cn1cnc(Cn2c(=O)nc(Nc3cc4cn(CC(=O)OC(C)(C)C)nc4cc3Cl)n(Cc3cc(F)c(F)c(Cl)c3)c2=O)n1 [II-0311]
IC50 ([1]; given as class symbols): < 100 nM | EC50 ([2]; class symbols): 1000 to 10000 nM

Cc1cncc(-n2c(=O)nc(Nc3cc4cn(C)nc4cc3F)n(Cc3cc(F)c(F)c(F)c3)c2=O)c1 [Compound I-0112]
IC50 ([1]; given as class symbols): < 100 nM | EC50 ([2]; class symbols): < 1000 nM

Cc1cncc(-n2c(=O)nc(N3CC4(CCOC4)C3)n(Cc3cc(F)c(F)c(F)c3)c2=O)c1 [II-0376]
IC50 ([1]; RapidFire MS): 1000 nM | EC50 ([2]; CellTiter-Glo 2.0): 7130 nM

CNc1nc2ccc(Nc3nc(=O)n(-c4cncc(C)c4)c(=O)n3Cc3ccc(F)c(C#N)c3)cc2s1 [II-0313]
IC50 ([1]; given as class symbols): < 100 nM | EC50 ([2]; class symbols): < 1000 nM

COc1ccnc(Cn2c(=O)nc(Nc3cc4cn(C)nc4cc3Cl)n(Cc3cc(F)c(F)cc3F)c2=O)c1 [II-0252]
IC50 ([1]; given as class symbols): < 100 nM | EC50 ([2]; class symbols): 1000 to 10000 nM

COc1cncc(-n2c(=O)nc(Nc3cc4cn(C)nc4cc3Cl)n(Cc3ccc(F)c(C#N)c3)c2=O)c1 [II-0578]
IC50 ([1]; given as class symbols): < 100 nM | EC50 ([2]; class symbols): 1000 to 10000 nM

O=c1[nH]cccc1Cn1c(=O)nc(Nc2cc3cccnc3cc2Cl)n(Cc2cc(F)c(F)c(F)c2)c1=O [Compound I-0279]
IC50 ([1]; given as class symbols): < 100 nM | EC50 ([2]; class symbols): 1000 to 10000 nM

COc1ccc(Nc2nc(=O)n(-c3cccnc3)c(=O)n2Cc2cc(F)c(F)c(F)c2)cc1 [Compound I-0135]
IC50 ([1]; given as class symbols): 100 to 1000 nM | EC50 ([2]; class symbols): 1000 to 10000 nM

COc1ccc(Nc2nc(=O)n(Cc3ccc[nH]c3=O)c(=O)n2Cc2ccc(F)c(C#N)c2)cc1 [Compound I-0253]
IC50 ([1]; given as class symbols): < 100 nM | EC50 ([2]; class symbols): 1000 to 10000 nM

Cn1cnc(Cn2c(=O)nc(Nc3cc4cn(C)nc4cc3Cl)n(Cc3ccc(F)c(Br)c3)c2=O)n1 [II-0179]
IC50 ([1]; given as class symbols): < 100 nM | EC50 ([2]; class symbols): 1000 to 10000 nM

O=c1[nH]cc(Cl)cc1Cn1c(=O)nc(Nc2cc3cn(CCO)nc3cc2Cl)n(Cc2cc(F)c(F)c(F)c2)c1=O [Compound I-0079]
IC50 ([1]; given as class symbols): < 100 nM | EC50 ([2]; class symbols): 1000 to 10000 nM

CC(C)Nc1nc2cc(Cl)c(Nc3nc(=O)n(Cc4ccc[nH]c4=O)c(=O)n3Cc3cc(F)c(F)c(F)c3)cc2s1 [II-0413]
IC50 ([1]; given as class symbols): < 100 nM | EC50 ([2]; class symbols): 1000 to 10000 nM

Cn1cnc(Cn2c(=O)nc(N3CCc4ccccc4CC3)n(Cc3cc(F)c(F)c(F)c3)c2=O)n1 [II-0550]
IC50 ([1]; RapidFire MS): 1100 nM | EC50 ([2]; CellTiter-Glo 2.0): 6420 nM
